In ChEMBL document CHEMBL6127087 (Eur J Med Chem, 2024):
Activity calls are given as the source filed them. No cut-off for these calls is given here.

Experiments:
[1] = Tmax in male Sprague-Dawley rat at 10 mg/kg, iv measured after 24 hrs by LC-MS/MS analysis; assay type: ADME, organism-based; conditions: male, Sprague-Dawley, in vivo, read-out: Tmax (converted)
Mus musculus [2] = assay: In vivo inhibition of NLRP3 activation in LPS-induced male C57BL/6 mouse model of acute […] injury assessed as reduction in NLRP3 level in lung at 2 to 6 mg/kg, IG preadministered with compound for 7 days followed by LPS administration and measured after 24 hrs by Western blot analysis; assay type: functional, organism-based; conditions: dose 2-6 mg/kg, time 8.0 day
Mus musculus [3] = assay: Anti-inflammatory activity in LPS-induced male C57BL/6 mouse model of acute […] injury assessed as inhibition of CXCL10 mRNA expression at 2 to 6 mg/kg, IG preadministered with compound for 7 days followed by LPS administration and measured after 24 hrs by RT-PCR analysis; assay type: functional, organism-based; conditions: dose 2-6 mg/kg, time 8.0 day
Mus musculus [4] = assay: Anti-inflammatory activity in LPS-induced male C57BL/6 mouse model of acute […] injury assessed as improvement in pulmonary edema by measuring reduction in wet to dry ratio of lung at 2 to 6 mg/kg, IG preadministered with compound for 7 days followed by LPS administration and measured after 24 hrs; assay type: functional, organism-based; conditions: dose 2-6 mg/kg, time 8.0 day
Mus musculus [5] = assay: Anti-inflammatory activity in LPS-induced male C57BL/6 mouse model of acute […] injury assessed as inhibition of CCL2 mRNA expression at 2 to 6 mg/kg, IG preadministered with compound for 7 days followed by LPS administration and measured after 24 hrs by RT-PCR analysis; assay type: functional, organism-based; conditions: dose 2-6 mg/kg, time 8.0 day
[6] = Half-life in male Sprague-Dawley rat at 10 mg/kg, iv measured after 24 hrs by LC-MS/MS analysis; assay type: ADME, organism-based; conditions: male, Sprague-Dawley, in vivo
Mus musculus [7] = assay: Anti-inflammatory activity in LPS-induced male C57BL/6 mouse model of acute […] injury assessed as reduction in infiltration of immune cells by measuring decrease in lymphocytes count at 2 to 6 mg/kg, IG preadministered with compound for 7 days followed by LPS administration and measured after 24 hrs; assay type: functional, organism-based; conditions: dose 2-6 mg/kg, time 8.0 day
[8] = Metabolic stability in human liver microsomes assessed as half-life preincubated for 10 mins followed by NADPH addition and measured upto 60 mins by LC-MS/MS analysis; assay type: ADME, Microsome; conditions: time < 70 min
Mus musculus [9] = assay: (§1) Anti-inflammatory activity in LPS-induced male C57BL/6 mouse model of acute […] injury assessed as reduction in interstitial edema in lung at 2 to 6 mg/kg, IG preadministered with compound for 7 days followed by LPS administration and measured after 24 hrs by H and E staining based histopathological analysis; assay type: functional, organism-based; conditions: dose 2-6 mg/kg, time 8.0 day
Cytochrome P450 1A2 = biological target: T1, Cytochrome P450 1A2 (Homo sapiens, UniProt P05177); assay: Inhibition of CYP1A2 in human liver microsomes using phenacetin as substrate preincubated for 10 mins followed by NADPH addition and measured after 10 mins by LC-MS/MS analysis; assay type: ADME, Microsome
T1 sequence (P05177 whole entry): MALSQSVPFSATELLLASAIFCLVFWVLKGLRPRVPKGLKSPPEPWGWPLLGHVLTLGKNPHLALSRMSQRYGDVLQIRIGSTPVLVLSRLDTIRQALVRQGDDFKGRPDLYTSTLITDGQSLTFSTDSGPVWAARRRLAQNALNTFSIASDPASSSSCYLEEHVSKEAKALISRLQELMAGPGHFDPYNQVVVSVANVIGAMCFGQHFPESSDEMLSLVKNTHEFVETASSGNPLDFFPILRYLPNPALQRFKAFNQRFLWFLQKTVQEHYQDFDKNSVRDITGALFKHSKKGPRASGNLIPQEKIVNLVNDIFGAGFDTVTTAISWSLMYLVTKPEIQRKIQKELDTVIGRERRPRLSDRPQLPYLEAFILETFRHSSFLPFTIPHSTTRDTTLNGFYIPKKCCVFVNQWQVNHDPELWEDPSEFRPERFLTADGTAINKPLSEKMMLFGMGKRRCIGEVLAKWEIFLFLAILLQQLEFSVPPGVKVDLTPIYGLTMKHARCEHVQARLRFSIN

Mus musculus [10] = assay: as §1, with “inflammatory infiltration” for “interstitial edema”; assay type: functional, organism-based; conditions: dose 2-6 mg/kg, time 8.0 day
Cytochrome P450 3A4 = Cytochrome P450 3A4 (Homo sapiens, UniProt P08684); assay: Inhibition of CYP3A4 in human liver microsomes using midazolam as substrate preincubated for 10 mins followed by NADPH addition and measured after 10 mins by LC-MS/MS analysis; assay type: ADME, Microsome
[11] = biological target: T2, P2Y purinoceptor 14 (Homo sapiens) (UniProt Q15391); assay: Antagonist activity at human P2Y14R stably expressed in HEK293 cells assessed as inhibition of UDPG-induced cAMP accumulation preincubated with compound for 30 mins followed by UDPG addition by cAMP-GloTM assay; assay type: functional, cell-based
T2 sequence (whole entry): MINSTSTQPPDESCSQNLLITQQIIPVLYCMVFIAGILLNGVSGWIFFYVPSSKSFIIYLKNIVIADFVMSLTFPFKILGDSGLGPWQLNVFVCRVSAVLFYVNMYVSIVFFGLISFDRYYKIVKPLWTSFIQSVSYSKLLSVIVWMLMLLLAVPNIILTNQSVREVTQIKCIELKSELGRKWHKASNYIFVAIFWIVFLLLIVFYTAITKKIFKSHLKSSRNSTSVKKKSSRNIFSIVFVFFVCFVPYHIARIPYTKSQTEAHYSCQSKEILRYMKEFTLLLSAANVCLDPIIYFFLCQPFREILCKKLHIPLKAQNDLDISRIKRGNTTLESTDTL

Mus musculus [12] = assay: Anti-inflammatory activity in LPS-induced male C57BL/6 mouse model of acute […] injury assessed as reduction in infiltration of neutrophils into lung at 2 to 6 mg/kg, IG preadministered with compound for 7 days followed by LPS administration and measured after 24 hrs by immunofluorescence analysis; assay type: functional, organism-based; conditions: dose 2-6 mg/kg, time 8.0 day
Mus musculus [13] = assay: Anti-inflammatory activity in LPS-induced male C57BL/6 mouse model of acute […] injury assessed as inhibition of CCL2 release at 2 to 6 mg/kg, IG preadministered with compound for 7 days followed by LPS administration and measured after 24 hrs by ELISA; assay type: functional, organism-based; conditions: dose 2-6 mg/kg, time 8.0 day
[14] = Clearance in male Sprague-Dawley rat at 20 mg/kg, po measured after 24 hrs by LC-MS/MS analysis; assay type: ADME, organism-based; conditions: in vivo
[15] = Stability in simulated gastric fluid assessed as half-life; assay type: physicochemical
Mus musculus [16] = assay: Anti-inflammatory activity in LPS-induced male C57BL/6 mouse model of acute […] injury assessed as inhibition of CXCL1 mRNA expression at 2 to 6 mg/kg, IG preadministered with compound for 7 days followed by LPS administration and measured after 24 hrs by RT-PCR analysis; assay type: functional, organism-based; conditions: dose 2-6 mg/kg, time 8.0 day
P2Y purinoceptor 6 = P2Y purinoceptor 6 (Homo sapiens, UniProt Q15077); assay: Binding affinity to P2Y6R (unknown origin) assessed as dissociation constant by SPR analysis
[17] = Oral bioavailability in male Sprague-Dawley rat at 20 mg/kg measured after 24 hrs by LC-MS/MS analysis; assay type: ADME, organism-based; conditions: male, Sprague-Dawley, in vivo
[18] = AUC (0 to 24 hrs) in male Sprague-Dawley rat at 20 mg/kg, po measured after 24 hrs by LC-MS/MS analysis; assay type: ADME, organism-based; conditions: male, Sprague-Dawley, in vivo
[19] = Stability in simulated intestinal fluid assessed as half-life; assay type: physicochemical
Mus musculus [20] = assay: Anti-inflammatory activity in LPS-induced male C57BL/6 mouse model of acute […] injury assessed as reduction in TNF-alpha level in BALF at 2 to 6 mg/kg, IG preadministered with compound for 7 days followed by LPS administration and measured after 24 hrs by ELISA; assay type: functional, organism-based; conditions: dose 2-6 mg/kg, time 8.0 day

Sequence of P2Y purinoceptor 6 (Q15077 whole entry): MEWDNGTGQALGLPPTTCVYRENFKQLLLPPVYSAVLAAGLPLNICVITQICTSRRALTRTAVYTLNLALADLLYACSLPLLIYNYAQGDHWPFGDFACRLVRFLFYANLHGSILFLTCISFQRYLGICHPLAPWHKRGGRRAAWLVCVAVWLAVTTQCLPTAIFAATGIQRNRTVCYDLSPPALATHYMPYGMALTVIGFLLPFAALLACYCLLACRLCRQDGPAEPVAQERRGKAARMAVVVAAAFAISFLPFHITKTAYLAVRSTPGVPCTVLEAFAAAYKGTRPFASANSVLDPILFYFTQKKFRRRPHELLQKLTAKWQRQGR
Sequence of Cytochrome P450 3A4 (P08684 whole entry): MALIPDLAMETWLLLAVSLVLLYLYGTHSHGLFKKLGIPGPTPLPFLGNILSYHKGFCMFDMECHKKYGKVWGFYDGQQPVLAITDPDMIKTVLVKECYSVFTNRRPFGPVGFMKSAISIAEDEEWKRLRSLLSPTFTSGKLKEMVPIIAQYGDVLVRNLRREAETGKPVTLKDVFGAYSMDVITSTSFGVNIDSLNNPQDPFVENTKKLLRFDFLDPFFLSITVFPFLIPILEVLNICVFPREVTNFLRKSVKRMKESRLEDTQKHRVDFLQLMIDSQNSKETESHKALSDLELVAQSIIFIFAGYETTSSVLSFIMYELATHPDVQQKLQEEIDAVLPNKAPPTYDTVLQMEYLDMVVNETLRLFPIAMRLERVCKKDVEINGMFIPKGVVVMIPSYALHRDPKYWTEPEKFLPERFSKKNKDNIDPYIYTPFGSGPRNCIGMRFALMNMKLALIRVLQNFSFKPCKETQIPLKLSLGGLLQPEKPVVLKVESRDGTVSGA

Tmax [1]: 0.467 h
half-life [6]: 1.5 h
half-life [8]: 3.55 h
IC50 (Cytochrome P450 1A2): > 50 µM
IC50 (Cytochrome P450 3A4): > 50 µM
Activity [11]: inactive
CL/F [14]: 28.3 mL/min/kg
half-life [15]: > 50 h
Kd (P2Y purinoceptor 6): 1.4 µM
bioavailability [17]: 43%
AUC(0-t) at 24 h [18]: 2980 ng·h/mL
half-life [19]: > 5 h
SMILES: O=C(O)CCC(=O)N1N=C(c2ccc[nH]2)CC1c1cnc2ccccc2c1 (stereo not drawn)
inhibition (Mus musculus [2]): Active
Activity (Mus musculus [3]): Active
Activity (Mus musculus [4]): Active
Activity (Mus musculus [5]): Active
Activity (Mus musculus [7]): Active
Activity (Mus musculus [9]): Active
Activity (Mus musculus [10]): Active
Activity (Mus musculus [12]): Active
Activity (Mus musculus [13]): Active
Activity (Mus musculus [16]): Active
Activity (Mus musculus [20]): Active
